Assays:
CfEcR-DEF mutant F48N = CfEcR-DEF mutant F48N (Choristoneura fumiferana, UniProt O77255, F331N); assay: GAL4-driven luciferase reporter assay in NIH3T3 cells; format: cell-based; details: mutant F48N
Procedure: (§1) This construct was prepared in the same way as in switch 1.1 above except wild-type CfEcR-DEF was replaced with mutant CfEcR-DEF comprising a ligand binding domain comprising a substitution mutation selected from Table 1 below.
(§2) DNAs were transfected into mouse NIH3T3 cells (ATCC) as follows. Standard methods for culture and maintenance of the cells were followed. Cells were harvested and plated 96-well plates at 2,500 cells per well, in 50 μL of growth medium containing 10% fetal bovine serum (FBS). Twenty-four hours later, the cells were treated with 35 μL of serum-free growth medium containing either dimethylsulfoxide (DMSO; control) or a DMSO solution of ligand. The cells were then transfected using Superfect (Qiagen Inc.) transfection reagent. For each well, 0.625 μL of Superfect was mixed with 14.2 μL of serum-free growth medium. 0.16 μg of reporter construct and 0.04 μg of each receptor construct were added to the transfection reagent mix. The contents of the transfection mix were mixed in a vortex mixer and let stand at room temperature for 30 minutes. At the end of incubation, 15 μL of transfection mix was added to the cells. The cells were maintained at 37° C. and 5% CO2 for 48 hours in 5% FBS.
(§3) Reporter Assays: Cells were harvested 40 hours after adding ligands. 125 μL of passive lysis buffer (part of Dual-Luciferase reporter assay system from Promega Corporation) were added to each well of the […] plate. The plates were placed on a rotary shaker for 15 minutes. Twenty μL of lysate were assayed. Luciferase activity was measured using Dual-Luciferase reporter assay system from Promega Corporation following the manufacturer's instructions. Fold induction (FI) activities were calculated by dividing relative light units (“RLU”) in ligand treated cells with RLU in DMSO treated cells (untreated control).

[1] = target: CfEcR-DEF mutant V107I/Y127E/T52V (Choristoneura fumiferana, UniProt O77255, T335V/V390I/Y410E); assay: as above; format: cell-based; details: mutant V107I/Y127E/T52V
Procedure: as §1, §2, §3

CfEcR-DEF mutant M125W = CfEcR-DEF mutant M125W (Choristoneura fumiferana, UniProt O77255, M408W); assay: as above; format: cell-based; details: mutant M125W
CfEcR-DEF mutant M125W, sequence (O77255 entry or part of it M408W): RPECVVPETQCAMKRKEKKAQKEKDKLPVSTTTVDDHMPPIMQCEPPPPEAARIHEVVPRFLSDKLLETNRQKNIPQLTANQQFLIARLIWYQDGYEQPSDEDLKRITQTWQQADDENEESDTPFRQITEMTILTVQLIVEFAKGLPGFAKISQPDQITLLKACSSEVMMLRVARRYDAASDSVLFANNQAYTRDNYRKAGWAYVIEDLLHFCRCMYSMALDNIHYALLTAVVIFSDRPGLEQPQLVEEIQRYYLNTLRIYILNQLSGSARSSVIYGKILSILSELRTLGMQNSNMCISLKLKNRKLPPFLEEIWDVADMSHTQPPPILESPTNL
CfEcR-DEF mutant M125W, sequence (P28702 299-449, further chain): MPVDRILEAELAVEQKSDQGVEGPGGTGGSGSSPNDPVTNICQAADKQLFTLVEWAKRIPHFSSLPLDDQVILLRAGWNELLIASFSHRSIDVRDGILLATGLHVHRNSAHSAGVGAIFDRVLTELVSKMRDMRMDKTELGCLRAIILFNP
Procedure: as §1, §2, §3

[2] = target: CfEcR-DEF mutant T52V/A110P (Choristoneura fumiferana, UniProt O77255, A393P/T335V); assay: as above; format: cell-based; details: mutant T52V/A110P
Procedure: as §1, §2, §3

CfEcR-DEF mutant L234M = CfEcR-DEF mutant L234M (Choristoneura fumiferana, UniProt O77255, L517M); assay: cell-based; details: mutant L234M
Procedure: as §1, §2, §3

CfEcR-DEF mutant Y120W = CfEcR-DEF mutant Y120W (Choristoneura fumiferana, UniProt O77255, Y403W); assay: cell-based; details: mutant Y120W
CfEcR-DEF mutant Y120W, sequence (O77255 entry or part of it Y403W): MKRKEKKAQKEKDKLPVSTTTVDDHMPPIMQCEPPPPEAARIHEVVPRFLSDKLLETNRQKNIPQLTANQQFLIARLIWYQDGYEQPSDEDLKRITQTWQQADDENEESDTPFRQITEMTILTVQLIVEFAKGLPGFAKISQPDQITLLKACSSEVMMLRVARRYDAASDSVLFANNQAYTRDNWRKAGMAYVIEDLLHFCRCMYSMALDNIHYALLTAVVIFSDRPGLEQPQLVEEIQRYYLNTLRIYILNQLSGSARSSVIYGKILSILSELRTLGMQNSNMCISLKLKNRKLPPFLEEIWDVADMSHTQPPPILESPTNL
CfEcR-DEF mutant Y120W, sequence (P28702 299-449, further chain): as the sequence (P28702 299-449, further chain) above
Procedure: as §1, §2, §3

CfEcR-DEF mutant V96L = CfEcR-DEF mutant V96L (Choristoneura fumiferana, UniProt O77255, V379L); assay: cell-based; details: mutant V96L
Procedure: as §1, §2, §3

CfEcR-DEF mutant I51L = CfEcR-DEF mutant I51L (Choristoneura fumiferana, UniProt O77255, I334L); assay: cell-based; details: mutant I51L
CfEcR-DEF mutant I51L, sequence (O77255 entry or part of it I334L): as the sequence (O77255 entry or part of it M408W) above, with I128L, W202M counted along it
CfEcR-DEF mutant I51L, sequence (P28702 299-449, further chain): as the sequence (P28702 299-449, further chain) above
Procedure: as §1, §2, §3

CfEcR-DEF mutant M125E = CfEcR-DEF mutant M125E (Choristoneura fumiferana, UniProt O77255, M408E); assay: cell-based; details: mutant M125E
CfEcR-DEF mutant M125E, sequence (O77255 entry or part of it M408E): as the sequence (O77255 entry or part of it M408W) above, with W202E counted along it
CfEcR-DEF mutant M125E, sequence (P28702 299-449, further chain): as the sequence (P28702 299-449, further chain) above
Procedure: as §1, §2, §3

CfEcR-DEF mutant M54W = CfEcR-DEF mutant M54W (Choristoneura fumiferana, UniProt O77255, M337W); assay: cell-based; details: mutant M54W
Procedure: as §1, §2, §3

CfEcR-DEF mutant W238P = CfEcR-DEF mutant W238P (Choristoneura fumiferana, UniProt O77255, W521P); assay: cell-based; details: mutant W238P
CfEcR-DEF mutant W238P, sequence (P28702 299-449): as the sequence (P28702 299-449, further chain) above
CfEcR-DEF mutant W238P, sequence (O77255 entry or part of it W521P): as the sequence (O77255 entry or part of it Y403W) above, with W185Y, W303P counted along it
Procedure: as §1, §2, §3

CfEcR-DEF mutant V96W = CfEcR-DEF mutant V96W (Choristoneura fumiferana, UniProt O77255, V379W); assay: cell-based; details: mutant V96W
Procedure: as §1, §2, §3

CfEcR-DEF mutant T52E = CfEcR-DEF mutant T52E (Choristoneura fumiferana, UniProt O77255, T335E); assay: cell-based; details: mutant T52E
CfEcR-DEF mutant T52E, sequence (O77255 entry or part of it T335E): as the sequence (O77255 entry or part of it Y403W) above, with T117E, W185Y counted along it
CfEcR-DEF mutant T52E, sequence (P28702 299-449, further chain): as the sequence (P28702 299-449, further chain) above
Procedure: as §1, §2, §3

CfEcR-DEF mutant R95W = CfEcR-DEF mutant R95W (Choristoneura fumiferana, UniProt O77255, R378W); assay: cell-based; details: mutant R95W
Procedure: as §1, §2, §3

CfEcR-DEF mutant A110W = CfEcR-DEF mutant A110W (Choristoneura fumiferana, UniProt O77255, A393W); assay: cell-based; details: mutant A110W
Procedure: as §1, §2, §3

CfEcR-DEF mutant M92L = CfEcR-DEF mutant M92L (Choristoneura fumiferana, UniProt O77255, M375L); assay: cell-based; details: mutant M92L
CfEcR-DEF mutant M92L, sequence (O77255 entry or part of it M375L): as the sequence (O77255 entry or part of it Y403W) above, with M157L, W185Y counted along it
CfEcR-DEF mutant M92L, sequence (P28702 299-449, further chain): as the sequence (P28702 299-449, further chain) above
Procedure: as §1, §2, §3

CfEcR-DEF mutant A110P = CfEcR-DEF mutant A110P (Choristoneura fumiferana, UniProt O77255, A393P); assay: cell-based; details: mutant A110P
CfEcR-DEF mutant A110P, sequence (O77255 entry or part of it A393P): as the sequence (O77255 entry or part of it M408W) above, with A187P, W202M counted along it
CfEcR-DEF mutant A110P, sequence (P28702 299-449, stated change not applied, further chain): as the sequence (P28702 299-449, further chain) above
Procedure: as §1, §2, §3

CfEcR-DEF mutant F48L = CfEcR-DEF mutant F48L (Choristoneura fumiferana, UniProt O77255, F331L); assay: cell-based; details: mutant F48L
Procedure: as §1, §2, §3

CfEcR-DEF mutant R95M = CfEcR-DEF mutant R95M (Choristoneura fumiferana, UniProt O77255, R378M); assay: cell-based; details: mutant R95M
CfEcR-DEF mutant R95M, sequence (P28702 299-449): as the sequence (P28702 299-449, further chain) above
CfEcR-DEF mutant R95M, sequence (O77255 entry or part of it R378M): as the sequence (O77255 entry or part of it Y403W) above, with R160M, W185Y counted along it
Procedure: as §1, §2, §3

CfEcR-DEF mutant W238Y = CfEcR-DEF mutant W238Y (Choristoneura fumiferana, UniProt O77255, W521Y); assay: cell-based; details: mutant W238Y
Procedure: as §1, §2, §3

CfEcR-DEF mutant F109N = CfEcR-DEF mutant F109N (Choristoneura fumiferana, UniProt O77255, F392N); assay: cell-based; details: mutant F109N
Procedure: as §1, §2, §3

[3] = relative to max fold induction of GS-E ligand

## CC(C)(O)CC[C@@H](O)[C@](C)(O)[C@H]1CC[C@@]2(O)C3=CC(=O)[C@@H]4C[C@@H](O)[C@@H](O)C[C@]4(C)[C@H]3CC[C@]12C [20E, 20-hydroxyecdysone]
CfEcR-DEF mutant F48N
  Rel Max FI: 0
CfEcR-DEF mutant F48N; read-out: EC50
  EC50: > 33 µM
[1]; read-out: EC50
  EC50: > 33 µM
[1]; [3]
  Rel Max FI: 0.04
CfEcR-DEF mutant M125W
  Rel Max FI: 0
CfEcR-DEF mutant M125W; read-out: EC50
  EC50: > 33 µM
[2]; read-out: EC50
  EC50: > 33 µM
[2]; [3]
  Rel Max FI: 0
CfEcR-DEF mutant L234M
  Rel Max FI: 0
CfEcR-DEF mutant L234M; read-out: EC50
  EC50: > 33 µM
CfEcR-DEF mutant Y120W
  Rel Max FI: 0
CfEcR-DEF mutant Y120W; read-out: EC50
  EC50: > 33 µM
CfEcR-DEF mutant V96L
  Rel Max FI: 0
CfEcR-DEF mutant V96L; read-out: EC50
  EC50: > 33 µM
CfEcR-DEF mutant I51L
  Rel Max FI: 0
CfEcR-DEF mutant I51L; read-out: EC50
  EC50: > 33 µM
CfEcR-DEF mutant M125E
  Rel Max FI: 0
CfEcR-DEF mutant M125E; read-out: EC50
  EC50: > 33 µM
CfEcR-DEF mutant M54W
  Rel Max FI: 0
CfEcR-DEF mutant M54W; read-out: EC50
  EC50: > 33 µM
CfEcR-DEF mutant W238P; read-out: EC50
  EC50: > 33 µM
CfEcR-DEF mutant W238P; [3]
  Rel Max FI: 0
CfEcR-DEF mutant V96W
  Rel Max FI: 0
CfEcR-DEF mutant V96W; read-out: EC50
  EC50: > 33 µM
CfEcR-DEF mutant T52E
  Rel Max FI: 0
CfEcR-DEF mutant T52E; read-out: EC50
  EC50: > 33 µM
CfEcR-DEF mutant R95W
  Rel Max FI: 0
CfEcR-DEF mutant R95W; read-out: EC50
  EC50: > 33 µM
CfEcR-DEF mutant A110W
  Rel Max FI: 0
CfEcR-DEF mutant A110W; read-out: EC50
  EC50: > 33 µM
CfEcR-DEF mutant M92L
  Rel Max FI: 0
CfEcR-DEF mutant M92L; read-out: EC50
  EC50: > 33 µM
CfEcR-DEF mutant A110P; read-out: EC50
  EC50: > 33 µM
CfEcR-DEF mutant A110P; [3]
  Rel Max FI: 0
CfEcR-DEF mutant F48L; read-out: EC50
  EC50: > 33 µM
CfEcR-DEF mutant F48L; [3]
  Rel Max FI: 0
CfEcR-DEF mutant R95M
  Rel Max FI: 0
CfEcR-DEF mutant R95M; read-out: EC50
  EC50: > 33 µM
CfEcR-DEF mutant W238Y
  Rel Max FI: 0.18
CfEcR-DEF mutant W238Y; read-out: EC50
  EC50: > 33 µM
CfEcR-DEF mutant F109N
  Rel Max FI: 0
CfEcR-DEF mutant F109N; read-out: EC50
  EC50: > 33 µM

— US9163256B2, “Mutant receptors and their use in a nuclear receptor-based inducible gene expression system” (priority 2004, dated 2015)
